According to PMC4703101 (Chemical research in toxicology, 2015):
Counter-ions that a name gives are not always drawn. Marks after values point to notes of the source that are not given here.

Experiments:
[1] = tested on: Flavin monooxygenase (FMO); test: Microsomal flavin monooxygenase; settings: WT and LCN liver microsomes
[2] = tested on: Liver microsomal P450; test: Liver microsomal P450 oxidation; assay type: in vitro ADME; settings: Human liver microsome (H112); substrate 100 μM (AαC, PhIP, MeIQx), 10 μM (MROD)
[3] = Pharmacokinetics of plasma AαC and its metabolites after oral gavage of AαC; assay type: in vivo, mice (C57BL/6 background; WT, LCN, IECN); settings: for AUC 0-24 h in plasma, fold greater in LCN mice than in WT mice / Cmax in plasma, fold greater in LCN mice than in WT mice / clearance rate, fold lower in LCN mice than in WT mice: for AαC also vs IECN; for CL/F / AUC(0-t) / Cmax / half-life / Tmax / AUC0-24h / t1/2 / AUC0-6h: plasma
[4] = tested on: Aldehyde Oxidase; test: Aldehyde oxidase assay, liver cytosol; settings: WT and LCN liver cytosol
[5] = molecular target: Xanthine Dehydrogenase (Mus musculus, UniProt Q00519); test: Xanthine dehydrogenase assay, liver cytosol; assay type: in vitro ADME; settings: WT and LCN liver cytosol
Chain of Xanthine Dehydrogenase (Q00519 whole entry): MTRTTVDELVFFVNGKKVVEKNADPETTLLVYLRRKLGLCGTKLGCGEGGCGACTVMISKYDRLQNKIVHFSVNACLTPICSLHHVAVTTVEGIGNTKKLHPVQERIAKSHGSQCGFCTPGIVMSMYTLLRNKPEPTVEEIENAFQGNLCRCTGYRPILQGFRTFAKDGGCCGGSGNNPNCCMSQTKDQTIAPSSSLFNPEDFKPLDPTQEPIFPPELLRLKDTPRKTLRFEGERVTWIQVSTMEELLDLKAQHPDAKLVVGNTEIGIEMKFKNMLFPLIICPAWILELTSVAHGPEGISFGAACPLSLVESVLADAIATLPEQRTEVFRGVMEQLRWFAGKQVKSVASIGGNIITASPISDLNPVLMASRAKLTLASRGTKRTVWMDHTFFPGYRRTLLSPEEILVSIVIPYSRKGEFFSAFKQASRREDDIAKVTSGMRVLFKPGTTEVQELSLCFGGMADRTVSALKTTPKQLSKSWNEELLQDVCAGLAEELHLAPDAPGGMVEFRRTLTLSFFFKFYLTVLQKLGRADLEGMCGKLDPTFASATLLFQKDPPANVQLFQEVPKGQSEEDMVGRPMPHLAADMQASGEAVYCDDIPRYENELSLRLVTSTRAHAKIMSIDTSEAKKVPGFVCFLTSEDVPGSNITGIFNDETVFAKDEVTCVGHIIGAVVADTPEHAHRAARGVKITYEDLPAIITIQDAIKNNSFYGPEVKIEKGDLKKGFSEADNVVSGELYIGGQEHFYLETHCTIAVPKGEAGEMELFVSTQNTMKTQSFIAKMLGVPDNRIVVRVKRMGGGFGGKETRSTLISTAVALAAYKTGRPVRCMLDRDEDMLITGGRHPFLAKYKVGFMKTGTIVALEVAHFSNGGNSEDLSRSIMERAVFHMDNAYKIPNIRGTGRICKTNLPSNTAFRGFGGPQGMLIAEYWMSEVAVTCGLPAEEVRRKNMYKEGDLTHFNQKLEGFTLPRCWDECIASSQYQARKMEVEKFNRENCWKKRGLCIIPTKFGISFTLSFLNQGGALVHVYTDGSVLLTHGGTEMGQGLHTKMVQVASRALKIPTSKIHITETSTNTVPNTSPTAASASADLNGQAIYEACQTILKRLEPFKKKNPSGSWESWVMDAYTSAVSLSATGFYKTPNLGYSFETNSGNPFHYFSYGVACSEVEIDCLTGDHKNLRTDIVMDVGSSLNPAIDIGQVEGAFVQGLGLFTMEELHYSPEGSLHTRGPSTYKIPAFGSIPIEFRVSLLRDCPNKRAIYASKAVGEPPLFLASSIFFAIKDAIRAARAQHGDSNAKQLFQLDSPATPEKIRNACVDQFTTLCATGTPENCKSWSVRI

[6] = tested on: Liver microsomal P450; test: Liver microsomal P450 oxidation; assay type: in vitro ADME, mouse; settings: for P450 Oxidation: substrate 100 μM (AαC, PhIP, MeIQx), 10 μM (MROD), mean and SD, n ≥3, N.D. = not detected; for levels of metabolism, fold greater than AαC: 100 µM substrate
[7] = tested on: DNA; settings: cited from earlier work
[8] = tested on: DNA; settings: liver, kidney, colon, and mammary gland of female Cyp1a2-null mice; cited from earlier work
[9] = tested on: P450 1A2; settings: human hepatocytes in primary culture pretreated with furafylline; cited from earlier work
[10] = IECN mice, AαC 13.6 mg/kg oral gavage, mean ± S.D. n=5
[11] = LCN mice, AαC 1.36 mg/kg oral gavage, mean ± S.D. n=5
[12] = LCN mice, AαC 13.6 mg/kg oral gavage, mean ± S.D. n=5
[13] = WT mice, AαC 1.36 mg/kg oral gavage, mean ± S.D. n=5
[14] = WT mice, AαC 13.6 mg/kg oral gavage, mean ± S.D. n=5

Nc1ccc2c(n1)[nH]c1ccccc12 [AαC, 2-Amino-9H-pyrido[2,3-b]indole]
AαC metabolism, if present (limit of detection by HPLC-UV) [1]: < 50 pmol/min/mg protein | P450 Oxidation [2]: 820 ± 60 pmol/min/mg protein | AUC 0-24 h in plasma, fold greater in LCN mice than in WT mice ([3]; AαC 13.6 mg/kg oral gavage): about 20 fold | Cmax in plasma, fold greater in LCN mice than in WT mice ([3]; AαC 13.6 mg/kg oral gavage): 10 fold | clearance rate, fold lower in LCN mice than in WT mice ([3]; AαC 13.6 mg/kg oral gavage): 20 fold | CL/F [3, 10]: 5920 ± 1530 mL/h | CL/F [3, 11]: 884 ± 378^a ml/h | CL/F [3, 12]: 335 ± 146^b ml/h | CL/F [3, 13]: 15300 ± 5690 mL/h | CL/F [3, 14]: 6900 ± 1850 mL/h | AUC(0-t) ([3]; male, C57BL/6, mouse, po, 1.36 mg/kg, AUC0-6h, LCN mice, AαC 1.36 mg/kg oral gavage, mean ± S.D. n=5): 45.2 ± 16.9 ng·h/mL | AUC(0-t) ([3]; male, C57BL/6, mouse, po, 1.36 mg/kg, AUC0-6h, WT mice, AαC 1.36 mg/kg oral gavage, mean ± S.D. n=5): 2.5 ± 1.3 ng·h/mL | Cmax ([3]; male, C57BL/6, mouse, po, 1.36 mg/kg, Cmax, LCN mice, AαC 1.36 mg/kg oral gavage, mean ± S.D. n=5): 21.8 ± 13.6 ng/mL | Cmax ([3]; male, C57BL/6, mouse, po, 1.36 mg/kg, Cmax, WT mice, AαC 1.36 mg/kg oral gavage, mean ± S.D. n=5): 1.4 ± 0.9 ng/mL | half-life ([3]; male, C57BL/6, mouse, po, 1.36 mg/kg, t1/2, LCN mice, AαC 1.36 mg/kg oral gavage, mean ± S.D. n=5): 84 ± 30 min | half-life ([3]; male, C57BL/6, mouse, po, 1.36 mg/kg, t1/2, WT mice, AαC 1.36 mg/kg oral gavage, mean ± S.D. n=5): 102 ± 54 min | Tmax ([3]; male, C57BL/6, mouse, po, 13.6 mg/kg): 1 h | AUC(0-t) ([3]; male, C57BL/6, mouse, po, 13.6 mg/kg, AUC0-24h, IECN mice, AαC 13.6 mg/kg oral gavage, mean ± S.D. n=5): 68.4 ± 18.2 ng·h/mL | AUC(0-t) ([3]; male, C57BL/6, mouse, po, 13.6 mg/kg, AUC0-24h, LCN mice, AαC 13.6 mg/kg oral gavage, mean ± S.D. n=5): 1360 ± 595 ng·h/mL | AUC(0-t) ([3]; male, C57BL/6, mouse, po, 13.6 mg/kg, AUC0-24h, WT mice, AαC 13.6 mg/kg oral gavage, mean ± S.D. n=5): 57.6 ± 14.2 ng·h/mL | Cmax ([3]; male, C57BL/6, mouse, po, 13.6 mg/kg, Cmax, IECN mice, AαC 13.6 mg/kg oral gavage, mean ± S.D. n=5): 25.1 ± 12.4 ng/mL | Cmax ([3]; male, C57BL/6, mouse, po, 13.6 mg/kg, Cmax, LCN mice, AαC 13.6 mg/kg oral gavage, mean ± S.D. n=5): 272 ± 85.9 ng/mL | Cmax ([3]; male, C57BL/6, mouse, po, 13.6 mg/kg, Cmax, WT mice, AαC 13.6 mg/kg oral gavage, mean ± S.D. n=5): 26.5 ± 8.6 ng/mL | half-life ([3]; male, C57BL/6, mouse, po, 13.6 mg/kg, t1/2, IECN mice, AαC 13.6 mg/kg oral gavage, mean ± S.D. n=5): 234 ± 132 min | half-life ([3]; male, C57BL/6, mouse, po, 13.6 mg/kg, t1/2, LCN mice, AαC 13.6 mg/kg oral gavage, mean ± S.D. n=5): 168 ± 18 min | half-life ([3]; male, C57BL/6, mouse, po, 13.6 mg/kg, t1/2, WT mice, AαC 13.6 mg/kg oral gavage, mean ± S.D. n=5): 180 ± 144 min | AαC metabolism, if present (limit of detection by HPLC-UV) [4]: < 50 pmol/min/mg protein | AαC metabolism, if present (limit of detection by HPLC-UV) [5]: < 50 pmol/min/mg protein | P450 Oxidation ([6]; WT mouse liver microsomes): 103 ± 33 pmol/min/mg protein

Nc1nc2[nH]c3ccccc3c2cc1OS(=O)(=O)O [AαC-3-OSO3H, 2-amino-9H-pyrido[2,3-b]indol-3-yl sulfate]
Cmax, fold higher in LCN mice than in WT mice ([3]; AαC 1.36 mg/kg oral gavage): ~2 fold | AUC 0-24 h in plasma, fold greater in LCN mice than in WT mice ([3]; AαC 13.6 mg/kg oral gavage): about 1.6 fold | AUC0-24h [3, 10]: 5310 ± 1650 ng·h/mL | CL/F [3, 10]: 77.0 ± 20.3^c ml/h | Cmax [3, 10]: 913 ± 248 ng/mL | Tmax [3, 10]: 1.8 ± 1.2 h | t1/2 [3, 10]: 2.8 ± 0.2 h | AUC0-6h [3, 11]: 438 ± 118^a h*ng/ml | CL/F [3, 11]: 76.0 ± 39.2^b ml/h | Cmax [3, 11]: 177 ± 73.0^a ng/ml | Tmax [3, 11]: 1.0 ± 0 h | t1/2 [3, 11]: 2.5 ± 1.7 h | AUC0-24h [3, 12]: 6140 ± 1330^b h*ng/ml | CL/F [3, 12]: 64.3 ± 13.6^a ml/h | Cmax [3, 12]: 586 ± 128 ng/mL | Tmax [3, 12]: 3.5 ± 2.3 h | t1/2 [3, 12]: 3.1 ± 0.2 h | AUC0-6h [3, 13]: 165.6 ± 47.6 ng·h/mL | CL/F [3, 13]: 180 ± 140 mL/h | Cmax [3, 13]: 74.6 ± 31.5 ng/mL | Tmax [3, 13]: 1.0 ± 0 h | t1/2 [3, 13]: 5.9 ± 6.1 h | AUC0-24h [3, 14]: 3700 ± 911 ng·h/mL | CL/F [3, 14]: 107 ± 27.9 mL/h | Cmax [3, 14]: 669 ± 251 ng/mL | Tmax [3, 14]: 1.8 ± 1.3 h | t1/2 [3, 14]: 3.4 ± 1.2 h

O=C(O)[C@H]1O[C@@H](Nc2ccc3c(n2)[nH]c2ccccc23)[C@H](O)[C@@H](O)[C@@H]1O [AαC-N^2-Glu, N^2-(β-1-glucosidurony1)-2-amino-9H-pyrido[2,3-b]indole]
Cmax and AUC0-24h, fold higher in LCN than in WT mice ([3]; AαC 13.6 mg/kg by gavage, plasma (abstract)): 4-24 fold | AUC 0-24 h in plasma, fold greater in LCN mice than in WT mice ([3]; AαC 13.6 mg/kg oral gavage): ~ 6 fold | Cmax in plasma, fold greater in LCN mice than in WT mice ([3]; AαC 13.6 mg/kg oral gavage): 4.5 fold | clearance rate, fold lower in LCN mice than in WT mice ([3]; AαC 13.6 mg/kg oral gavage): 6.6 fold | AUC0-24h [3, 10]: 150 ± 30.0 ng·h/mL | CL/F [3, 10]: 3180 ± 1031 mL/h | Cmax [3, 10]: 42.4 ± 15.4 ng/mL | Tmax [3, 10]: 1.8 ± 1.2 h | t1/2 [3, 10]: 2.5 ± 2.2 h | AUC0-6h [3, 11]: 195 ±78.7^a h*ng/ml | CL/F [3, 11]: 207 ± 100^a ml/h | Cmax [3, 11]: 74.3 ± 48.6^a ng/ml | t1/2 [3, 11]: 1.5 ± 0.8 h | AUC0-24h [3, 12]: 803 ± 241^a h*ng/ml | CL/F [3, 12]: 543 ± 148^a ml/h | Cmax [3, 12]: 186 ± 85.0^b ng/ml | Tmax [3, 12]: 1.0 ± 0 h | t1/2 [3, 12]: 2.1 ± 0.5 h | AUC0-6h [3, 13]: 40.5 ± 16.6 ng·h/mL | CL/F [3, 13]: 985 ± 372 mL/h | Cmax [3, 13]: 19.2 ± 13.5 ng/mL | t1/2 [3, 13]: 1.4 ± 0.7 h | AUC0-24h [3, 14]: 128 ± 26.8 ng·h/mL | CL/F [3, 14]: 3610 ± 566 mL/h | Cmax [3, 14]: 40.2 ± 9.6 ng/mL | Tmax [3, 14]: 1.0 ± 0 h | t1/2 [3, 14]: 1.5 ± 0.7 h

COc1ccc2nc3ccc(=O)cc-3oc2c1 [MROD, methoxyresorufin]
MROD activity, fold decrease in LCN liver microsomes compared to WT microsomes [6]: greater than 10 fold

Cc1cnc2ccc3c(nc(N)n3C)c2n1 [MeIQx, 2-amino-3,8-dimethylimidaz[4,5-f]quinoxaline]
P450 Oxidation [2]: 1010 ± 155 pmol/min/mg protein | P450 Oxidation ([6]; LCN mouse liver microsomes): 67 ± 44 pmol/min/mg protein | levels of metabolism, fold greater than AαC ([6]; WT mouse liver microsomes): 3 to 4 fold | P450 Oxidation ([6]; WT mouse liver microsomes): 404 ± 155 pmol/min/mg protein

Cn1c(N)nc2ncc(-c3ccccc3)cc21 [PhIP, 2-amino-1-methyl-6-phenylimidazo[4,5-b]pyridine]
P450 Oxidation [2]: 1440 ± 280 pmol/min/mg protein | PhIP-DNA adduct levels in liver of RCN compared to WT mice [7]: unchanged | levels of DNA adducts in Cyp1a2-null vs WT mice [8]: ten-fold lower | levels of metabolism, fold greater than AαC ([6]; WT mouse liver microsomes): 3 to 4 fold | P450 Oxidation ([6]; WT mouse liver microsomes): 362 ± 120 pmol/min/mg protein

Cc1nc2c([nH]1)c(=O)n(C)c(=O)n2Cc1ccco1 [furafylline]
inhibition of dG-C8-AαC adduct formation [9]: only partially inhibited
